Test results: patent publication US9040501B2, “Compositions and methods for treating cancer” (Eisai Inc., priority 2009, dated 2015)
Like-named read-outs stand apart in the source and are kept apart here.

Assays:
[1] = target: T1, cytidine deaminase (CDA) (Homo sapiens (Human), UniProt P32320); assay: Effect of ER-876437 on the half-life of cytarabine in the presence of CDA in Tris-HCl buffer at 37° C.
[2] = target: T1, cytidine deaminase (CDA); assay: Effect of ER-876437 on the half-life of decitabine in the presence of CDA in Tris-HCl buffer at 37° C.; type: biochemical
Description: The solvent delivery system employed an HPLC quaternary pump, low pressure mixing. An autosampler having a variable loop, 0.1 to 100 μL range and temperature controlled thermostat was used. […] Degassed HPLC grade water and degassed HPLC grade acetonitrile were used as solvents for the mobile phases. […] [table]

[3] = tested on: murine lymphoma L1210; settings: ER-876437 10 mg/kg/Veh
Description: Or, a stock of L1210 ascites in BSA solution was diluted to 1×10^4 cells/0.1 ml for use in the study mice.
(§1) The mice were prepared with intravenous (IV) injection of L1210 ascites (prepared as described above) one day prior to commencing the dosing. […] The total IV injection for all mice took about 50 minutes.
All solutions were stored on ice while dosing. Mice were dosed (intraperitoneally (IP) or per os (orally, PO)) twice a day (8 hours apart) for 4 consecutive days.
(§2) Dead mice were autopsied and observed for the presence of tumors in organs.

[4] = Pharmacokinetics in mice after IV and PO administrations; type: in vivo, male BALB-c mice; settings: for concentration at 0.167 hr / concentration at 0.5 hr / concentration at 1 hr / concentration at 2 hr / concentration at 4 hr / concentration at 6 hr / concentration at 8 hr / concentration at 24 hr: read-out: Plasma concentrations
Description: […]. All doses were prepared in phosphate buffered saline (PBS) and were administered at a volume of 5 mL/kg. Five mice per group were used in these studies. Blood samples were taken serially from the tail vein of each mouse at predetermined timepoints. Blood samples from all mice in each group were pooled together prior to processing for plasma. The pooled blood samples were spun down within 30-60 minutes after withdrawal and the plasma was harvested and frozen for assay. After preparation and extraction the samples were assayed by LC/MS/MS.

[5] = tested on: murine lymphoma L1210
Description: Preparation of L1210 Cells: L1210 ascitic cells were prepared by passaging them in mice at least three times as follows. Each CD2F1 female mouse was intraperitoneally (IP) injected with about 10^5 L1210 ascitic cells. After one week, the mouse was sacrificed (asphyxiation via CO2). The mouse was placed on its back, its belly surface was cleaned with alcohol wipes, and a small incision was made into the peritoneal cavity. […] Diluted ascites (diluted 1:10 again) were counted on a hematocytometer and the number of cells per mL was calculated. About 10^5 L1210 cells were used for a subsequent passage for another mouse passage. Or, a stock of L1210 ascites in BSA solution was diluted to 1×10^4 cells/0.1 ml for use in the study mice.
as §1
Decitabine was prepared fresh twice a day, just prior to dosing. All solutions were stored on ice while dosing. Mice were dosed (intraperitoneally (IP) or per os (orally, PO)) twice a day (8 hours apart) for 4 consecutive days.
as §2
Preparation of study mice with IV injection of L1210 ascites took about 60 minutes. […] All solutions were stored on ice while dosing. Mice were dosed (IP or PO) twice a day (7 or 8 hours apart) for 4 consecutive days.

[6] = target: T1, cytidine deaminase (CDA); assay: Effect of ER-876437 on the half-life of gemcitabine in the presence of CDA in Tris-HCl buffer at 37° C.; type: biochemical
Description: This Example employed a Phenomenex Luna C18(2) HPLC column (100 Å 4.6×250 mm 5 μm). The solvent delivery system employed an HPLC quaternary pump, low pressure mixing. An autosampler having a variable loop, 0.1 to 100 μL range and temperature controlled thermostat was used. The UV detector can employ a dual wavelength detector, a diode array detector, a variable wavelength detector or equivalent, and can be recorded using chromatographic software (e.g., Waters Empower 2 Build 2154, Agilent ChemStation software version A.09.03 or higher for HPLC or equivalent). The analytical balance employed was capable of weighing ±0.1 mg. Degassed HPLC grade water and degassed HPLC grade acetonitrile were used as solvents for the mobile phases.
Gemcitabine Standard Control: 0.2 mM gemcitabine control was prepared by weighing […] of gemcitabine in a 10 mL volumetric flask. […] Solution was labeled as gemcitabine stock solution.

[7] = male, BALB-c, mouse, plasma, 10 mg/kg IV
[8] = male, BALB-c, mouse, plasma, 10 mg/kg PO
[9] = ER-876437 1.0 mg/kg/Veh, on autopsy

T1 sequence (P32320 whole entry): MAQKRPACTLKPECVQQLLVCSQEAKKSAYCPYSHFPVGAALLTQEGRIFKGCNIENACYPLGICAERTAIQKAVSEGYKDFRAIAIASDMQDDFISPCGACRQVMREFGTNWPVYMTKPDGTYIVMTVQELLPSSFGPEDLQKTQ

## O=C1NCC=CCN1[C@@H]1O[C@H](CO)[C@@H](O)C1(F)F [ER-876437, 1-((2R,4R,5R)-3,3-difluoro-4-hydroxy-5-(hydroxymethyl)tetrahydrofuran-2-yl)-3,4-dihydro-1H-1,3-diazepin-2(7H)-one]
[1]; CDA plus ER-876437 in the incubation mixture, after 52 h
  cytarabine remaining: greater than 95%
[1]; Tris-HCl buffer at 37° C.
  inhibition of the effect of CDA on T1/2 of cytarabine: nearly completely inhibited
[1]; after 52 hours of exposure to CDA with cytarabine
  levels of ER-876437: not affected
[2]; Tris-HCl buffer at 37° C.
  inhibition of the effect of CDA on T1/2 of decitabine: nearly completely inhibited
[2]; after 12 hours exposure to CDA with decitabine
  levels of ER-876437: not affected
[3]; on autopsy
  Mean Liver wts (g) ± SD: 2.02 ± 0.07 g
  Mean Spleen wts (g) ± SD: 0.37 ± 0.04 g
[3]; twice a day (8 hours apart), 4 days
  Mean Survival (days) ± SD: 7.6 ± 0.89 days
[3]; vs vehicle group
  % ILS (Increased Life Span): 2.70%
[4]; 10 mg/kg
  t1/2 after PO administration relative to IV administration: roughly 2.5 fold
[4]; 10 mg/kg IV
  AUC0-∞: 13.071 µg·h/mL
  AUC0-∞/D: 1307 ng · hr/mL/D
  AUCExtrap: 1.4%
  CL: 0.77 L/h/kg
  dose-normalized exposures (AUC0-∞): 1310 ng·h/mL per mg/kg
  t1/2: 6.1 h
[4]; 10 mg/kg PO
  AUC0-∞: 9.499 µg·h/mL
  AUC0-∞/D: 950 ng · hr/mL/D
  AUC(0-t): 8.579 µg·h/mL
  AUCExtrap: 9.7%
  t1/2: 16.3 h
[4]; [7]
  AUC(0-inf): 13.1 µg·h/mL
  clearance: 0.77 L/h/kg
  half-life: 6.1 h
  concentration at 0.167 hr: 11.8 µg/mL
  concentration at 0.5 hr: 7.69 µg/mL
  concentration at 1 hr: 3.47 µg/mL
  concentration at 2 hr: 1.45 µg/mL
  concentration at 4 hr: 0.214 µg/mL
  concentration at 6 hr: 0.184 µg/mL
  concentration at 8 hr: 0.064 µg/mL
  concentration at 24 hr: 0.02 µg/mL
[4]; male, BALB-c, mouse, plasma, 10 mg/kg IV, read-out: AUC0-t
  AUC(0-t): 12.9 µg·h/mL
[4]; male, BALB-c, mouse, plasma, 10 mg/kg IV, read-out: Vss
  Vd: 1.64 L/kg
[4]; [8]
  AUC(0-inf): 9.5 µg·h/mL
  Cmax: 8.6 µg/mL
  half-life: 16.3 h
  concentration at 0.167 hr: 8.6 µg/mL
  concentration at 0.5 hr: 3.72 µg/mL
  concentration at 1 hr: 4.18 µg/mL
  concentration at 2 hr: 1.15 µg/mL
  concentration at 4 hr: 0.146 µg/mL
  concentration at 6 hr: 0.036 µg/mL
  concentration at 8 hr: 0.103 µg/mL
  concentration at 24 hr: 0.039 µg/mL
[4]; male, BALB-c, mouse, plasma, 10 mg/kg PO vs IV, calculated based on AUC0-t, read-out: F (bioavailability)
  bioavailability: 66.5%
[4]; male, BALB-c, mouse, plasma, 10 mg/kg PO, read-out: AUC0-t
  AUC(0-t): 8.58 µg·h/mL
[5]; [9]
  Mean Liver wts (g) ± SD: 2.04 ± 0.15 g
  Mean Spleen wts (g) ± SD: 0.32 ± 0.02 g
[5]; ER-876437 1.0 mg/kg/Veh, twice a day (7 hours apart), 4 days
  Mean Survival (days) ± SD: 8.4 ± 0.55 days
[5]; ER-876437 1.0 mg/kg/Veh, vs vehicle group
  % ILS (Increased Life Span): 5.00%
[5]; with 0.1 mg/kg decitabine PO, L1210 survival model
  minimally effective dose: 0.1 mg/kg
[6]; CDA plus ER-876437 in the incubation mixture, after 7 h
  gemcitabine remaining: greater than 95%
[6]; Tris-HCl buffer at 37° C.
  inhibition of the effect of CDA on T1/2 of gemcitabine: nearly completely inhibited
[6]; after 7 hours of exposure to CDA with gemcitabine
  levels of ER-876437: not affected
